Source: patent US6528525B1, “Amidocarboxylic acid derivatives” (Sankyo Company, Limited, priority 1998, dated 2003)

System: hyperglycemic male KK mice
Experiment: Action in depressing blood glucose (Method 1)
Assay type: in vivo
Conditions: Mus musculus, po, 72 h, compound admixed with powder feed at 0.01% (ca. 10 mg/kg/day) for three days, plasma glucose vs control group, read-out: Rate of hypoglycemic activity (%) (blood glucose depression rate)
Description: Action in Depressing Blood Glucose (Method 1)
Each compound, admixed with powder feed F-2 (Funabashi Farm) was administered to hyperglycemic male KK mice each having a body weight of 40 g or more at a rate of 0.01% (ca. 10 mg/kg/day) for three days. Meanwhile, mice of a control group were fed with the powder feed only. Then, a blood sample was collected from the caudal vein of each mouse under no anesthesia and centrifuged. The blood glucose in the plasma thus obtained was determined using Glucoloader F (Product of A & T Co., Ltd.).
The blood glucose depression rate were estimated from the following equation:
Blood glucose depression rate (%)=[(Blood glucose in Control group−Blood glucose in administered group)/Blood glucose in Control group]×100

Compared with `CCOC(Cc1ccc(OCCNC(=O)c2ccc(-c3ccccn3)cc2)cc1)C(=O)O` (stereo not shown) [Example 2, Sodium 2-ethoxy-3-[4-[2-(4-pyridine-2-ylbenzoylamino)ethoxy]phenyl]propionate], `CCCC(Cc1ccc(OCCNC(=O)c2ccc(-c3ccccn3)cc2)cc1)C(=O)O` (stereo not shown) [Example 74, 2-Propyl-3-[4-[2-(4-pyridine-2-ylbenzoylamino)ethoxy]phenyl]propionic acid] is higher in inhibition in vivo at 10 mg/kg/day: 43% for the first, 60% for the second.

Going from `O=C(NCCOc1ccc(CC(CCCc2ccccc2)C(=O)O)cc1)c1ccc(-c2ccccn2)cc1` (stereo not shown) [Example 4, 2-(3-phenylpropyl)-3-[4-[2-(4-pyridine-2-ylbenzoylamino)ethoxy]phenyl]propionic acid] to `CCCCC(Cc1ccc(OCCNC(=O)c2ccc(-c3ccccn3)cc2)cc1)C(=O)O` (stereo not shown) [Example 12, 2-butyl-3-[4-[2-(4-pyridine-2-ylbenzoylamino)ethoxy]phenyl]propionic acid], the inhibition in vivo at 10 mg/kg/day rises from 15% to 42%.

First: CC(C)c1ccc(OC(Cc2ccc(OCCNC(=O)c3ccc(-c4ccccn4)cc3)cc2)C(=O)O)cc1 (stereo not shown) [Example 10, 2-(4-isopropylphenoxy)-3-[4-[2-(4-pyridine-2-ylbenzoylamino)ethoxy]phenyl]propionic acid]
Second: CC(C)c1ccc(O[C@@H](Cc2ccc(OCCNC(=O)c3ccc(-c4ccccn4)cc3)cc2)C(=O)O)cc1 [Example 104, (S)-2-(4-Isopropylphenoxy)-3-[4-[2-(4-pyridine-2-ylbenzoylamino)ethoxy]phenyl]propionic acid]
The inhibition in vivo at 10 mg/kg/day of the first is lower: 64% for the first, 73% for the second.

Compared with `CC(Cc1ccc(OCCNC(=O)c2ccc(-c3ccccn3)cc2)cc1)(Oc1ccccc1)C(=O)O` (stereo not shown) [Example 16, 2-Methyl-2-phenoxy-3-[4-[2-(4-pyridine-2-ylbenzoylamino)ethoxy]phenyl]propionic acid], `CC(C)c1ccc(OC(C)(Cc2ccc(OCCNC(=O)c3ccc(-c4ccccn4)cc3)cc2)C(=O)O)cc1` (stereo not shown) [Example 18, 2-(4-Isopropylphenoxy)-2-methyl-3-[4-[2-(4-pyridine-2-ylbenzoylamino)ethoxy]phenyl]propionic acid] is higher in inhibition in vivo at 10 mg/kg/day: 64% for the first, 68% for the second.

First: CCCCC(Cc1ccc(OCCNC(=O)c2ccc(-c3ccccc3)cc2)cc1)C(=O)O (stereo not shown) [Example 22, 3-[4-[2-(Biphenyl-4-carbonylamino)ethoxy]phenyl]-2-butylpropionic acid]
Second: CCCCC(Cc1ccc(OCCNC(=O)c2ccc(-c3cccc(O)c3)cc2)cc1)C(=O)O (stereo not shown) [Example 34, 2-Butyl-3-[4-[2-(3′-hydroxybiphenyl-4-carbonylamino)ethoxy]phenyl]propionic acid]
The inhibition in vivo at 10 mg/kg/day of the first is lower: 17% for the first, 22% for the second.

Going from `CCCCC(Cc1ccc(OCCNC(=O)c2ccc(-c3ccc(C=O)cc3)cc2)cc1)C(=O)O` (stereo not shown) [Example 27, 2-Butyl-3-[4-[2-(4′-formylbiphenyl-4-carbonylamino)ethoxy]phenyl]propionic acid] to `CCCCC(Cc1ccc(OCCNC(=O)c2ccc(-c3ccc(C(=O)O)cc3)cc2)cc1)C(=O)O` (stereo not shown) [Example 30, 2-Butyl-3-[4-[2-(4′-carboxybiphenyl-4-carbonylamino)ethoxy]phenyl]propionic acid], the inhibition in vivo at 10 mg/kg/day falls from 35% to 18%.

First: CCCCC(Cc1ccc(OCCNC(=O)c2ccc(-c3ccc(CN(C)C)cc3)cc2)cc1)C(=O)O (stereo not shown) [Example 29, 2-Butyl-3-[4-[2-(4′-dimethylaminomethylbiphenyl-4-carbonyl-amino)ethoxy]phenyl]propionic acid]
Second: CCCCC(Cc1ccc(OCCNC(=O)c2ccc(-c3cccc(OC)c3)cc2)cc1)C(=O)O (stereo not shown) [Example 32, 2-Butyl-3-[4-[2-(3′-methoxybiphenyl-4-carbonylamino)ethoxy]phenyl]propionic acid]
The inhibition in vivo at 10 mg/kg/day of the first is lower: 20% for the first, 21% for the second.

First: CCCCC(Cc1ccc(OCCNC(=O)c2ccc(-c3ccccc3OC)cc2)cc1)C(=O)O (stereo not shown) [Example 43, 2-Butyl-3-[4-[2-(2′-methoxybiphenyl-4-carbonylamino)ethoxy]phenyl]propionic acid]
Second: CCCCC(Cc1ccc(OCCCNC(=O)c2ccc(-c3ccccn3)cc2)cc1)C(=O)O (stereo not shown) [Example 70, 2-Butyl-3-[4-[3-(4-pyridine-2-ylbenzoylamino)propoxy]phenyl]propionic acid]
The inhibition in vivo at 10 mg/kg/day of the first is lower: 20% for the first, 23% for the second.

First: CCCCC(Cc1ccc(OCCNC(=O)c2ccc(-c3cc(C)c(O)c(C)c3)cc2)cc1)C(=O)O (stereo not shown) [Example 48, Sodium 2-butyl-3-[4-[2-(4′-hydroxy-3′, 5′-dimethylbiphenyl-4-carbonylamino)ethoxy]phenyl]propionate]
Second: CCCCC(Cc1ccc(OCCNC(=O)c2ccc(OC)nc2)cc1)C(=O)O (stereo not shown) [Example 52, 2-Butyl-3-[4-[2-(2-methoxypyridine-5-carbonylamino)ethoxy]phenyl]propionic acid]
The inhibition in vivo at 10 mg/kg/day of the first is higher: 37% for the first, 20% for the second.

First: O=C(NCCOc1ccc(CC(Oc2ccccc2)C(=O)O)cc1)c1ccc(-c2ccccc2)cc1 (stereo not shown) [Example 76, 3-[4-[2-(Biphenyl-4-carbonylamino)ethoxy]phenyl]-2-phenoxypropionic acid]
Second: O=C(NCCOc1ccc(CC(Oc2ccccc2)C(=O)O)cc1)c1ccc(-c2ccc(F)cc2)cc1 (stereo not shown) [Example 78, 3-[4-[2-(4′-Fluorobiphenyl-4-carbonylamino)ethoxy]phenyl]-2-phenoxypropionic acid]
The inhibition in vivo at 10 mg/kg/day of the first is lower: 50% for the first, 53% for the second.

Compared with `O=C(NCCOc1ccc(CC(Oc2ccccc2)C(=O)O)cc1)c1ccc(-c2ccc(Cl)cc2)cc1` (stereo not shown) [Example 80, 3-[4-[2-(4′-Chlorobiphenyl-4-carbonylamino)ethoxy]phenyl]-2-phenoxypropionic acid], `O=C(NCCOc1ccc(CC(Oc2ccccc2)C(=O)O)cc1)c1ccc(-c2ccc(C(F)(F)F)cc2)cc1` (stereo not shown) [Example 82, 3-[4-[2-(4′-Trifluoromethylbiphenyl-4-carbonylamino)ethoxy]phenyl]-2-phenoxypropionic acid] is lower in inhibition in vivo at 10 mg/kg/day: 50% for the first, 32% for the second.

Compared with `CC(C)c1ccc(OC(Cc2ccc(OCCNC(=O)c3ccc(-c4ccccc4)nc3)cc2)C(=O)O)cc1` (stereo not shown) [Example 97, 2-(4-Isopropylphenoxy)-3-[4-[2-(2-phenylpyridine-5-carbonylamino)ethoxy]phenyl]propionic acid], `CC(C)c1ccc(OC(Cc2ccc(OCCNC(=O)c3ccc(-c4ccc(F)cc4)nc3)cc2)C(=O)O)cc1` (stereo not shown) [Example 101, 3-[4-[2-[2-(4-Fluorophenyl)pyridine-5-carbonylamino]ethoxy]phenyl]-2-(4-isopropylphenoxy)propionic acid] is lower in inhibition in vivo at 10 mg/kg/day: 66% for the first, 51% for the second.

First: COc1ccc(-c2ccc(C(=O)NCCOc3ccc(CC(Oc4ccc(C(C)C)cc4)C(=O)O)cc3)cn2)cc1 (stereo not shown) [Example 99, 2-(4-Isopropylphenoxy)-3-[4-[2-[2-(4-methoxyphenyl)pyridine-5-carbonylamino]ethoxy]phenyl]propionic acid]
Second: COc1ccc(-c2ccc(C(=O)NCCOc3ccc(CC(Oc4ccc(C(C)C)cc4)C(=O)O)cc3)cc2)nc1 (stereo not shown) [Example 111, 2-(4-Isopropylphenoxy)-3-[4-[2-[4-(3-methoxypyridine-6-yl)-benzoylamino]ethoxy]phenyl]propionic acid]
The inhibition in vivo at 10 mg/kg/day of the first is lower: 57% for the first, 70% for the second.

First: CC(C)c1ccc(OC(Cc2ccc(OCCNC(=O)c3ccc(OCC(F)(F)C(F)F)nc3)cc2)C(=O)O)cc1 (stereo not shown) [Example 103, Sodium 3-[4-[2-[2-(2,2,3,3-tetrafluoropropoxy)pyridine-5-carbonylamino]ethoxy]phenyl]-2-(4-isopropylphenoxy)propionate]
Second: CC(C)c1ccc(OC(Cc2ccc(OCCNC(=O)c3ccc(-c4ccc(C(F)(F)F)cn4)cc3)cc2)C(=O)O)cc1 (stereo not shown) [Example 107, 2-(4-isopropylphenoxy)-3-[4-[2-[4-(3-trifluoromethylpyridine-6-yl)benzoylamino]ethoxy]phenyl]propionic acid]
The inhibition in vivo at 10 mg/kg/day of the first is higher: 48% for the first, 38% for the second.

Compared with `CC(C)c1ccc(OC(Cc2ccc(OCCNC(=O)c3ccc(-c4ccc([N+](=O)[O-])cn4)cc3)cc2)C(=O)O)cc1` (stereo not shown) [Example 109, 2-(4-Isopropylphenoxy)-3-[4-[2-[4-(3-nitropyridine-6-yl)benzoylamino]ethoxy]phenyl]propionic acid], `CC(C)c1ccc(OC(Cc2ccc(OCCNC(=O)c3ccc(-c4ccc(N(C)C)cn4)cc3)cc2)C(=O)O)cc1` (stereo not shown) [Example 113, 3-[4-[2-[4-(3-Dimethylaminopyridine-6-yl)benzoylamino]ethoxy]-phenyl]-2-(4-isopropylphenoxy)propionic acid] is higher in inhibition in vivo at 10 mg/kg/day: 38% for the first, 64% for the second.

Going from `Cc1ccc(OC(Cc2ccc(OCCNC(=O)c3ccc(-c4ccccn4)cc3)cc2)C(=O)O)cc1` (stereo not shown) [Example 115, 2-(4-Methylphenoxy)-3-[4-[2-(4-pyridine-2-ylbenzoylamino)ethoxy]phenyl]propionic acid] to `CC(C)(C)c1ccc(OC(Cc2ccc(OCCNC(=O)c3ccc(-c4ccccn4)cc3)cc2)C(=O)O)cc1` (stereo not shown) [Example 117, 2-(4-t-Butylphenoxy)-3-[4-[2-(4-pyridine-2-ylbenzoylamino)ethoxy]phenyl]propionic acid], the inhibition in vivo at 10 mg/kg/day rises from 66% to 70%.

Same assay, conditions: compound admixed with powder feed at 0.01% (ca. 10 mg/kg/day) for three days, plasma glucose vs control group

First: O=C(NCCOc1ccc(CC(Oc2ccccc2)C(=O)O)cc1)c1ccc(-c2ccccn2)cc1 (stereo not shown) [Example 8, 2-Phenoxy-3-[4-[2-(4-pyridine-2-ylbenzoylamino)ethoxy]phenyl]propioric acid]
Second: CCCCC(Cc1ccc(OCCNC(=O)c2ccc(N(CC)CC)cc2)cc1)C(=O)O (stereo not shown) [Example 62, 2-Butyl-3-[4-[2-(4-N,N-dietylaminobenzoylamino)ethoxy]phenyl]propionic acid]
The “Rate of hypoglycemic activity (%) (blood glucose depression rate)” value of the first is higher: 22% for the first, 16% for the second.
